In patent publication US20230255934A1, “NURR1 RECEPTOR MODULATORS AND USES THEREOF” (The Regents of the University of California, priority 2020, published 2023):

Assays:
RXRα LBD = target: T1, RXRα LBD (Homo sapiens, UniProt P19793); assay: MST binding to RXRα LBD (specificity control)
T1 construct: made in house
T1 sequence (P19793 with tags, fused parts or gaps): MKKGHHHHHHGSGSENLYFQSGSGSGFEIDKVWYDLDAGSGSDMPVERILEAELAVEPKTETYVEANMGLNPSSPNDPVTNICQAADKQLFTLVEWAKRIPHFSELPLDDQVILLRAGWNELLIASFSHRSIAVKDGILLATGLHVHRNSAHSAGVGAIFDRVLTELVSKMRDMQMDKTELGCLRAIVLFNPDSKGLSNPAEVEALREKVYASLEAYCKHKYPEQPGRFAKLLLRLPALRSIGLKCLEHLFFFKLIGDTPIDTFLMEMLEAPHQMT
Description: The Nurr1 LBD protein, containing the N-terminal “LAP2” sequence that is recognized by a “coumarin ligase”, was expressed and purified using metal affinity and size-exclusion chromatography according to the previously reported protocol, except that the TEV cleavage step and reverse metal affinity chromatography were omitted.^1 The RXRα LBD protein, containing the N-terminal “LAP2” sequence, was expressed and purified identically to the Nurr1 LBD protein with minor modifications. Specifically, the elution of protein from Talon resin was performed by a step gradient of 10 CV each of 50 mM, 100 mM, 200 mM and 300 mM imidazole in 50 mM Tris-HCl buffer containing 300 mM NaCl at pH 7.8. Purity of protein in each fraction was analyzed by SDS PAGE and fractions eluted with 100-300 mM imidazole were pooled and concentrated. […]
Data were collected using the Monolith NT.115 System (Nanotemper), with settings for all samples at 40% excitation power and 40% MST power. The initial fluorescence was recorded for 3 sec and the thermophoresis fluorescence response was recorded for 20 sec. The data was inspected with Palmist software^5, and data points affected by initial fluorescence quenching or photobleaching were eliminated. The fluorescent response for each sample was normalized to the initial fluorescence using Palmist software to provide the values of thermophoresis (Fn). […]

[1] = Dynamic light scattering assay of nano-aggregation; format: physicochemical; details: MST buffer with Pluronic F127
Procedure: Measurements were made using a DynaPro MS/X (Wyatt Technology) with a 55 mW laser at 826.6 nm, using a detector angle of 90°. The laser power was 100%, and the acquisition time was 2 s. Histograms represent the average of three independent data sets, each with at least 10 measurements.

Clc1ccc2[nH]ccc2c1 [5-chloroindole]
Binding to the RXRα LBD (in words) (RXRα LBD): does not exhibit saturable binding | Nano-aggregation properties [1]: minimal
